Measured values published in patent US10272158B2, “Compounds for treating biofilm infection” (Board of Regents, The University of Texas System, priority 2014, dated 2019).
Values after ≈ are worked out from the molar mass of the structure shown. Values joined by “and” are separate entries in the source; they are usually repeats but may differ in a detail not shown here. Equal values may be shown once.

Tests used:
Format in all cases: cell-based, Pseudomonas aeruginosa PAO1
[1] = system: P. aeruginosa pre-formed biofilm; assay: MIC80 in pre-formed biofilm phase, XTT reduction assay; settings: pre-formed biofilm (24 h), 24 h treatment
Method: (§1) Pseudomonas aeruginosa (P. aeruginosa) PAO1 was used throughout the study. Blood agar and Brain heart infusion (BHI) solution were used for culturing P. aeruginosa.
(§2) Prior to each experiment, P. aeruginosa was cultured on blood agar for 18 h at 37° C. A loopful of the overnight bacterial growth was inoculated into BHI medium, and incubated for 18 h in an orbital shaker (80 rpm) at 37° C. The resultant growth was harvested, washed twice in Phosphate Buffered Saline (PBS, pH 7.4) and resuspended. The concentration of P. aeruginosa was adjusted to 1×10^7 cells/mL by spectrophotometry and confirmed by hemocytometric counting.
(§3) P. aeruginosa biofilm was developed as described (Bandara et al., 2010) with minor modifications. Commercially available pre-sterilized, polystyrene, flat bottom 96-well microtiter plates (BD Biosciences, California, USA) were used. […]
P. aeruginosa pre-formed biofilm was developed after 24 h incubation of adherent cells in sterile 96 well plates, as described in the section of Biofilm Formation. […] At the end of incubation period, XTT reduction assay was performed to quantify the viability of biofilm and crystal violet assay was used to measure biofilm biomass.

[2] = system: P. aeruginosa biofilm formation phase; assay: Crystal violet assay of biofilm biomass, biofilm formation phase
Method: Bacterial cell suspension was added in sterile 96 well plates and incubated for 90 min under similar conditions as described in the section of Biofilm Formation. After the initial adhesion phase, adherent cells were treated with different samples in a concentration gradient, including control (PBS), tobramycin, and Tob-PEG. After 24 h incubation under 37° C. and 80 rpm, reduction assay of 2,3-bis(2-methoxy-4-nitro-5-sulfo-phenyl)-2H-tetrazolium-5-carboxanilide (XTT) was performed to quantify the viability of biofilm and crystal violet assay was used to measure biofilm biomass. At the end of incubation of both test and control biofilm, crystal violet assay was performed to quantify biofilm biomass. Biofilm was carefully washed twice with PBS and stained with 1% crystal violet solution for 15 min at 25° C. without shaking. Wells were carefully washed three times with PBS to remove excess stain and air dried in room temperature. Thirty percent acetic acid was added to the wells containing stained biofilm and incubated for 20 min at 25° C. The solution was transferred to a new well plate and optical density was measured at 570 nm.

[3] = system: P. aeruginosa planktonic phase; assay: Minimum inhibitory concentration (MIC80) in planktonic phase, broth microdilution, optical density 595 nm; settings: 24 h, 80% growth inhibition
Method: Pseudomonas aeruginosa (P. aeruginosa) PAO1 was used throughout the study. Blood agar and Brain heart infusion (BHI) solution were used for culturing P. aeruginosa. Prior to each experiment, P. aeruginosa was cultured on blood agar for 18 h at 37° C. A loopful of the overnight bacterial growth was inoculated into BHI medium, and incubated for 18 h in an orbital shaker (80 rpm) at 37° C. The resultant growth was harvested, washed twice in Phosphate Buffered Saline (PBS, pH 7.4) and resuspended. The concentration of P. aeruginosa was adjusted to 1×10^7 cells/mL by spectrophotometry and confirmed by hemocytometric counting. Briefly, bacterial cell suspension (5×10^5 cells/mL) were treated with the antibiotic in a concentration gradient and incubated in a 96 well microtiter plate for 24 h at 35° C. At the end of the incubation, the optical density of the bacterial growth was measured by a spectrophotometer at 595 nm. The lowest concentration of the antibiotic at which 80% of bacterial growth inhibition was achieved was considered as the MIC80 of this antibiotic against P. aeruginosa. The assay was performed quadruplicates at three times.

[4] = system: P. aeruginosa pre-formed biofilm; assay: Elimination of pre-formed biofilm in time dependent test (XTT); settings: each at its biofilm MIC80 (Tob-PEG 27.81, tobramycin 89.80 μmol/L), 1-36 h
Method: P. aeruginosa pre-formed biofilm was developed as described previously and was treated with different samples at respective biofilm MIC80 concentrations. The plates were then incubated for 24 h at 37° C. and 80 rpm. XTT reduction assay was performed to selected samples at predetermined time points (1 h, 2 h, 3 h, 4 h, 5 h, 6 h, 9 h, 12 h, 15 h, 18 h, 21 h, 24 h and 36 h after incubation) to assess the percentage of time dependent bacterial inhibition.

[5] = system: P. aeruginosa biofilm formation phase; assay: MIC80 in biofilm formation phase, XTT reduction assay; settings: Pseudomonas aeruginosa, 24 h, read-out: critical concentration necessary for 80% suppression of P. aeruginosa viability (MIC80)
Method: as §1, §2, §3
Bacterial cell suspension was added in sterile 96 well plates and incubated for 90 min under similar conditions as described in the section of Biofilm Formation. […] After 24 h incubation under 37° C. and 80 rpm, reduction assay of 2,3-bis(2-methoxy-4-nitro-5-sulfo-phenyl)-2H-tetrazolium-5-carboxanilide (XTT) was performed to quantify the viability of biofilm and crystal violet assay was used to measure biofilm biomass.

For `NC[C@H]1O[C@H](O[C@H]2[C@H](O)[C@@H](O[C@H]3O[C@H](CO)[C@@H](O)[C@H](N)[C@H]3O)[C@H](N)C[C@@H]2N)[C@H](N)C[C@@H]1O` [tobramycin, Tobramycin], the “critical concentration needed for 80% inhibition of viable P. aeruginosa pre-formed biofilm (MIC80)” value [1] was 89.80 µM and 89.8 µM, the “increment of the biofilm biomass compared to control” value ([2]; 1.40 μmol/L, 24 h) was 17% and the “biomass change versus untreated control” value ([2]; signed change) was “+17%”. For the same compound, the “Minimum inhibitory concentration (MIC80)” value [3] was 1.4 µM (≈ 0.655 µg/mL), the MIC80 ([3]; Pseudomonas aeruginosa) was 1.4 µM (≈ 0.655 µg/mL) and the “time dependent biofilm inhibition” value [4] was “After 18 h, tobramycin was superior”. It also gave an MIC80 [5] of 1.4 µM (≈ 0.655 µg/mL).
